Data on 4 compounds can be found in publication PMC3562233 (PLoS ONE, 2013).

For assay [1], the target named is T1, V27A M2 (Influenza A virus, UniProt P0DOF5, V27A). Type of assay: cell-based, influenza A virus (Udorn strain).
Assay [2] has as its target T2, S31N M2 (Influenza A virus, UniProt P0DOF5, S31N). Type of assay: cell-based, influenza A virus (Udorn strain).
Assay [3] addresses T1, V27A M2. Type of assay: cell-based.
In assay [4] the target is T2, S31N M2. Type of assay: cell-based.

The % inhibition is the percentage by which the read-out fell short of the control. A lower % inhibition goes with a weak effect.

Regarding `NC12CC3CC(CC(C3)C1)C2` [Amantadine, reference compound], the “activity against V27A mutant in the yeast assay” value in assay [1] is “did not increase the growth”. Moreover, in assay [2], the “activity against S31N mutant in the yeast assay” value was “did not increase the growth”. Take `O=[N+]([O-])c1ccc(CNC23CC4CC(CC(C4)C2)C3)cc1` [Compound 4, 1-adamantyl (4-nitrobenzyl)amine]: the “% inhibition at 100 µM in TEVC V27A” value in assay [3] amounted to 9.7 ± 0.3%. Moreover, in assay [4], the “% inhibition at 100 µM in TEVC S31N” value turned out to be 15.9 ± 0.2%. For the compound `CC1(C)C2CCC1(C)C(N1CCNCC1)C2.Cl.Cl` (stereo not drawn) [Compound 16, 1-(1,7,7-trimethylbicyclo[2.2.1]hept-2-yl)piperazine dihydrochloride], the “activity against S31N mutant in the yeast assay” value in assay [2] was “inactive”. For the compound `NC1CCC2(CC1)C1CC3CC(C1)CC2C3` (stereo not drawn) [spiroadamantane amine], the “concentration that clearly increased growth of the V27A strain” value in assay [1] is on record as at least 0.01 µM.
